The test relates to lashes and adjacent hairs of patients. Description: Clinical observation of eyelash/hair growth in glaucoma patients treated in one eye. The settings on record: glaucoma patients treated in one eye only. The class given is in vivo. An excerpt: In the course of treating patients having glaucoma, treatment may only be appropriate in one eye. […] The lash appearance on the lids of the treated eyes would have appeared quite attractive if it represented a bilateral phenomenon. As a result of its asymmetric nature, the long lashes on one side could be construed as disturbing from a cosmetic standpoint. A systemic examination was preformed as a result of the asymmetric phenomenon. It soon became apparent that this altered appearance was not an isolated finding. […] Definite differences could be identified to varying degrees in the lashes and adjacent hairs of all patients who were taking the drug on a unilateral basis for longer than 6 months.
The changes in the lashes were apparent on gross inspection in several patients once attention was focused on the issue. In those with light colored hair and lashes, the differences were only seen easily with the aid of the high magnification and lighting capabilities of the slit lamp biomicroscope. In the course of glaucoma follow-up examination, attention is generally immediately focused on the eye itself. As a result of the high power magnification needed only one eye is seen at a time and the eye is seen at a high enough power that the lashes are not in focus. […]

This is an account of results in US7964595B2, “Thiophenyl prostaglandin derivatives for treating glaucoma and ocular hypertension” (Allergan, Inc., priority 2008, dated 2011).

`CCNC(=O)CCC/C=C\C[C@@H]1[C@@H](/C=C/[C@@H](O)CCc2ccccc2)[C@H](O)C[C@@H]1O` [bimatoprost]: the “lash appearance in treated eye versus non-treated eye” value was “longer, thicker, and fuller”.
